Measurements: patent US20230392118A1, “GENERATION OF CD4+ EFFECTOR AND REGULATORY T CELLS FROM HUMAN PLURIPOTENT STEM CELLS” (Sangamo Therapeutics, Inc., priority 2020, published 2023)

System: dox-inducible GFP expression cassette
Test: Dox-inducible GFP expression cassette integrated into AAVS1 locus of iPSCs
Assay type: cell-based, human
Method: This Example describes an experiment in which a green fluorescent protein expression cassette was integrated into the AAVS1 gene locus as illustrated in FIG. 21. AAVS1 ZFN mRNA and donor plasmid were delivered into iPSCs via electroporation on Day −7. One week later (Day 0), puromycin was added (0.3 μg/mL) to the tissue culture to begin positive selection for cells having undergone targeted integration. Doxycycline was added at Day 15 and maintained in culture at 3 different doses (0.3, 1, and 3 μg/mL) to induce expression of the dox-inducible GFP expression cassette. […] Cells were maintained in the presence of doxycycline for 13 days. During this period, the 3 μg/mL dose of doxycycline yielded the highest level of inducible GFP transgene expression (94%; FIG. 22). This high level of expression was sustained while doxycycline was present in culture. Cells were maintained in puromycin as well as doxycycline from Day 15-28 and were further positively selected (increase from ˜50% to ˜70% of alleles with targeted integration).

Row | Structure (SMILES) | Inducible GFP transgene expression (3 μg/mL doxycycline, iPSCs, maintained 13 days) [%] | Alleles with targeted integration after positive selection (puromycin as well as doxycycline, Day 15-28, increase from ~50%) [%]
1 | C[C@H]1c2cccc(O)c2C(=O)C2=C(O)[C@]3(O)C(=O)C(C(N)=O)=C(O)[C@@H](N(C)C)[C@@H]3[C@@H](O)[C@@H]21 [doxycycline] | 94 | –
2 | COc1ccc(C[C@H](N)C(=O)N[C@H]2[C@@H](O)[C@H](n3cnc4c(N(C)C)ncnc43)O[C@@H]2CO)cc1 [puromycin] | – | ~70
